This is an account of results in patent US4542137A, “Alkylaminodesoxy-1.4;3.6-dianhydrohexitol nitrates substituted by purine bases and pharmaceutical compositions” (priority 1980, dated 1985).

Molecules are shown by their SMILES. Read-outs that look alike come from different tables or passages of the source. A value given as a limit tells only on which side of the number the result lay.

Series [1] is described as follows: examination of acute toxicity, i.v., female NMRI-albino mice. In kind it is in vivo. To be noted: mouse, in vivo, iv, mice, 24 hours; read-out: Evaluated LD50-range. The protocol: (§1) . The compounds were injected to at least 3 animals per dose. If no animal had yet been died following to the highest dose which was administered, no more doses of substances were tested. In case of doubt, the examination was repeated with at least 3 more animals applying the same dose.
(§2) The rate of death within 24 hours after administration was observed.
(§3) In table IX, the determined rates of death as well as the LD50 -ranges evaluated therefrom are shown.

The test system of a further series is female NMRI-albino mice. Described as above. In kind it is in vivo. Conditions: within 24 hours; for Frequency of death with an intravenous dose of 100 mg/kg: 100 mg/kg i.v.; for Frequency of death with an intravenous dose of 200 mg/kg: 200 mg/kg i.v.; for Frequency of death with an intravenous dose of 50 mg/kg: 50 mg/kg i.v. The protocol: as §1, §2, §3
Series [2] concerns isolated guinea pig hearts. As to the kind of experiment: coronary flowthrough-increasing effectiveness on isolated guinea pig hearts according to Langendorff. Conditions: Cavia porcellus, 25 μg/ml in tyrode solution, Langendorff heart; for activation at 25 µg/mL: read-out: flowthrough (coronary), percentage change in comparison with the initial value. The method, then:
After achieving the stationary state in the 30th minute, the hearts were each infused with 50 ml. tyrode solution with a content of test substance of, in each case, 25 μg./ml. Each test substance was tested on 3-6 hearts.
In each case, there was measured the inotropism, the flowthrough and the frequency, whereby the values given in Table I are average values of the percentage changes in comparison with the starting values.

In series [3] the test system is isolated rat aorta preparations. As to the kind of experiment: spasmolytic effectiveness on isolated rat aorta preparations (noradrenaline- and potassium chloride-induced contractions).
[4] abbreviates: read-out: frequency, percentage change in comparison with the initial value.
Setting [5] is: read-out: inotropism, percentage change in comparison with the initial value.
[6] abbreviates: read-out: ED50 for spasmolytic action, Noradrenaline spasm (50% inhibition).
Where [7] appears, read: read-out: ED50 for spasmolytic action, potassium chloride spasm (50% inhibition).

Consider `Cn1c(=O)c2c(ncn2CCN[C@H]2CO[C@H]3[C@@H]2OC[C@@H]3O[N+](=O)[O-])n(C)c1=O` [Example 2, 5-(2-Theophyllin-7-ylethyl)-amino-5-desoxy-1.4;3.6-dianhydro-L-iditol 2-nitrate], for which, in series [1], the LD50 at 24 h is not below 200 mg/kg. Besides, in the series with female NMRI-albino mice, the “Frequency of death with an intravenous dose of 100 mg/kg” value (“Frequency of death … of 100 mg/kg” below) was 0/3. The “Frequency of death with an intravenous dose of 200 mg/kg” value (shortened to “Frequency of death … of 200 mg/kg”) with female NMRI-albino mice is 1/3. Further, the activation at 25 µg/mL in series [2] was 34.7%. Also, the inhibition at 25 µg/mL is -3.5% in series [2] (setting [4]) and 4.6% in series [2] (setting [5]). Further, the results for the IC50 in series [3] (setting [6]) and in series [3] (setting [7]) were 4.2 µM and 30.5 µM, respectively.
Consider `Cn1c(=O)c2c(ncn2CCCCN[C@H]2CO[C@H]3[C@@H]2OC[C@@H]3O[N+](=O)[O-])n(C)c1=O` [Example 3, 5-(4-Theophyllin-7-ylbutyl)-amino-5-desoxy-1.4;3.6-dianhydro-L-iditol 2-nitrate], for which the LD50 at 24 h in series [1] is more than 200 mg/kg. The “Frequency of death … of 200 mg/kg” value in the series on female NMRI-albino mice is on record as 0/6. In addition, the activation at 25 µg/mL in series [2] was found to be 36.4%. The inhibition at 25 µg/mL was found to be 4.8% in series [2] (setting [4]) and 3.82% in series [2] (setting [5]). Further, the IC50 in series [3] (setting [6]) came to 2.6 µM; in series [3] (setting [7]), 3.6 µM.
With `Cn1c(=O)c2c(ncn2CCCCCN[C@H]2CO[C@H]3[C@@H]2OC[C@@H]3O[N+](=O)[O-])n(C)c1=O` [Example 4, 5-(5-Theophyllin-7-ylpentyl)-amino-5-desoxy-1.4;3.6-dianhydro-L-iditol 2-nitrate], the LD50 at 24 h in series [1] was 100 to 200 mg/kg. The “Frequency of death … of 100 mg/kg” value in the series on female NMRI-albino mice is 0/10. Moreover, in the series with female NMRI-albino mice, the “Frequency of death … of 200 mg/kg” value is given as 10/10. Moreover, in series [2], the activation at 25 µg/mL stood at 55.7%. For the same compound, the figures for the inhibition at 25 µg/mL in series [2] (setting [4]) and in series [2] (setting [5]) were 8.41% and 5.44%, respectively. Moreover, the IC50 in series [3] (setting [6]) was found to be 2.7 µM; in series [3] (setting [7]), 3.8 µM.
As to `Cn1c(=O)c2c(ncn2CCCCCCN[C@H]2CO[C@H]3[C@@H]2OC[C@@H]3O[N+](=O)[O-])n(C)c1=O` [Example 5, 5-(6-Theophyllin-7-ylhexyl)-amino-5-desoxy-1.4;3.6-dianhydro-L-iditol 2-nitrate], the LD50 at 24 h in series [1] is not below 100 mg/kg. In addition, in the series with female NMRI-albino mice, the “Frequency of death with an intravenous dose of 50 mg/kg” value (“Frequency of death … of 50 mg/kg” for short) is 0/10, the “Frequency of death … of 100 mg/kg” value is given as 4/10 and the “Frequency of death … of 200 mg/kg” value is 10/10. Moreover, the activation at 25 µg/mL in series [2] was 61.9%. In series [2] (setting [4]), the inhibition at 25 µg/mL stood at 11.1%. In addition, the inhibition at 25 µg/mL in series [2] (setting [5]) stood at 43.3%. Further, the IC50 in series [3] (setting [6]) amounted to 0.36 µM. Also, the IC50 in series [3] (setting [7]) turned out to be 2.4 µM.
Turning to `Cn1c(=O)c2c(ncn2CC(O)CN[C@H]2CO[C@H]3[C@@H]2OC[C@@H]3O[N+](=O)[O-])n(C)c1=O` (stereo partly drawn) [Example 6, 5-(2-Hydroxy-3-theophyllin-7-ylpropyl)-amino-5-desoxy-1.4;3.6-dianhydro-L-iditol 2-nitrate], the activation at 25 µg/mL in series [2] came out at 53.3%. The inhibition at 25 µg/mL in series [2] (setting [4]) is -3.39%; in series [2] (setting [5]) it was -4.5%. The results for the IC50 in series [3] (setting [6]) and in series [3] (setting [7]) were 1.12 µM and 18 µM, respectively.
With `Cn1cnc2c1c(=O)n(CCCN[C@H]1CO[C@H]3[C@@H]1OC[C@@H]3O[N+](=O)[O-])c(=O)n2C` [Example 7c, 5-[3-(3,7-Dimethylxanthin-1-yl)-propylamino]-5-desoxy-1.4;3.6-dianhydro-L-iditol 2-nitrate], in series [1], the LD50 at 24 h was more than 200 mg/kg. Moreover, the “Frequency of death … of 200 mg/kg” value in the series on female NMRI-albino mice was 0/6. The activation at 25 µg/mL in series [2] is 28.9%. Besides, the percent change from initial value at 25 µg/mL in series [2] (setting [4]) is 0%. Also, the inhibition at 25 µg/mL in series [2] (setting [5]) is -10.5%.
Regarding `CC(C)Cn1c(=O)n(C)c(=O)c2c1ncn2CCCN[C@H]1CO[C@H]2[C@@H]1OC[C@@H]2O[N+](=O)[O-]` [Example 8c, 5-[3-(3-Isobutyl-1-methylxanthin-7-yl)-propylamino]-5-desoxy-1.4;3.6-dianhydro-L-iditol 2-nitrate], the LD50 at 24 h in series [1] was 100 to 200 mg/kg. Further, in the series with female NMRI-albino mice, the “Frequency of death … of 100 mg/kg” value is on record as 0/3 and the “Frequency of death … of 200 mg/kg” value is on record as 11/13.
Consider `Cn1c(=O)c2c(ncn2CCCN[C@@H]2CO[C@H]3[C@@H]2OC[C@@H]3O[N+](=O)[O-])n(C)c1=O` [Example 10c, 5-(3-Theophyllin-7-ylpropyl)-amino-5-desoxy-1.4;3.6-dianhydro-D-glucitol 2-nitrate], for which, in series [1], the LD50 at 24 h was more than 200 mg/kg. In addition, the “Frequency of death … of 200 mg/kg” value in the series with female NMRI-albino mice is recorded as 0/6. For the same compound, in series [2], the activation at 25 µg/mL came to 13%. Besides, the inhibition at 25 µg/mL was found to be 5.6% in series [2] (setting [4]) and 6.4% in series [2] (setting [5]).
Turning to `Cn1c(=O)c2c(ncn2CCCN[C@H]2CO[C@H]3[C@@H]2OC[C@H]3O[N+](=O)[O-])n(C)c1=O` [Example 11d, 2-(3-Theophyllin-7-ylpropyl)-amino-2-desoxy-1.4;3.6-dianhydro-D-glucitol 5-nitrate], the LD50 at 24 h in series [1] was more than 200 mg/kg. For the same compound, in the series with female NMRI-albino mice, the “Frequency of death … of 200 mg/kg” value is listed as 0/6.
For `Cn1c(=O)c2c(ncn2CCCN[C@@H]2CO[C@H]3[C@@H]2OC[C@H]3O[N+](=O)[O-])n(C)c1=O` [Example 12d, 5-(3-Theophyllin-7-ylpropyl)-amino-5-desoxy-1.4;3.6-dianhydro-D-mannitol 2-nitrate], the LD50 at 24 h in series [1] is more than 200 mg/kg. Moreover, the “Frequency of death … of 200 mg/kg” value with female NMRI-albino mice is given as 0/6.
With `Nc1ncnc2c1ncn2CCN[C@H]1CO[C@H]2[C@@H]1OC[C@@H]2O[N+](=O)[O-]` [Example 13, 5-(2-Adenin-9-ylethyl)-amino-5-desoxy-1.4;3.6-dianhydro-L-iditol 2-nitrate], in series [1], the LD50 at 24 h is more than 200 mg/kg. Besides, the “Frequency of death … of 200 mg/kg” value with female NMRI-albino mice is reported as 0/6. Also, the activation at 25 µg/mL in series [2] amounted to 12.2%. Moreover, the percent change from initial value at 25 µg/mL in series [2] (setting [4]) was found to be 0%. Further, the inhibition at 25 µg/mL in series [2] (setting [5]) was -2.3%.
As for `Nc1ncnc2c1ncn2CCCN[C@H]1CO[C@H]2[C@@H]1OC[C@@H]2O[N+](=O)[O-]` [Example 14, 5-(3-Adenin-9-ylpropyl)-amino-5-desoxy-1.4;3.6-dianhydro-L-iditol 2-nitrate], the activation at 25 µg/mL in series [2] is 55.8%. Further, the percent change from initial value at 25 µg/mL in series [2] (setting [4]) came out at 0%. Moreover, in series [2] (setting [5]), the inhibition at 25 µg/mL is -3.8%. In addition, the IC50 turned out to be 1.4 µM in series [3] (setting [6]) and 43.9 µM in series [3] (setting [7]).
On to `Nc1ncnc2c1ncn2CCCCN[C@H]1CO[C@H]2[C@@H]1OC[C@@H]2O[N+](=O)[O-]` [Example 15, 5-(4-Adenin-9-ylbutyl)-amino-5-desoxy-1.4;3.6-dianhydro-L-iditol 2-nitrate], for which, in series [1], the LD50 at 24 h was less than 50 mg/kg. For the same compound, in the series with female NMRI-albino mice, the “Frequency of death … of 50 mg/kg” value was 3/3, the “Frequency of death … of 100 mg/kg” value is on record as 3/3 and the “Frequency of death … of 200 mg/kg” value is listed as 3/3. In addition, the activation at 25 µg/mL in series [2] stood at 47.1%. Besides, the inhibition at 25 µg/mL in series [2] (setting [4]) came to 3.45%. The inhibition at 25 µg/mL in series [2] (setting [5]) is -3.85%.
As to `Nc1ncnc2c1ncn2CCCCCN[C@H]1CO[C@H]2[C@@H]1OC[C@@H]2O[N+](=O)[O-]` [Example 16, 5-(5-Adenin-9-ylpentyl)-amino-5-desoxy-1.4;3.6-dianhydro-L-iditol 2-nitrate], the LD50 at 24 h in series [1] fell in the range of 100 to 200 mg/kg. In addition, in the series with female NMRI-albino mice, the “Frequency of death … of 100 mg/kg” value is 0/10 and the “Frequency of death … of 200 mg/kg” value was 10/10. Also, the activation at 25 µg/mL in series [2] is 22.5%. Also, the inhibition at 25 µg/mL in series [2] (setting [4]) came out at 6.8%. The inhibition at 25 µg/mL in series [2] (setting [5]) was -6.5%.
As for `Nc1ncnc2c1ncn2CCCCCCN[C@H]1CO[C@H]2[C@@H]1OC[C@@H]2O[N+](=O)[O-]` [Example 17, 5-(6-Adenin-9-ylhexyl)-amino-5-desoxy-1.4;3.6-dianhydro-L-iditol 2-nitrate], the LD50 at 24 h in series [1] lay within 50 to 100 mg/kg. In the series with female NMRI-albino mice, the “Frequency of death … of 50 mg/kg” value was 0/10, the “Frequency of death … of 100 mg/kg” value is recorded as 2/3 and the “Frequency of death … of 200 mg/kg” value is listed as 3/3. For the same compound, the activation at 25 µg/mL in series [2] was found to be 60.6%. Besides, the inhibition at 25 µg/mL in series [2] (setting [4]) turned out to be 3.6%. Also, in series [2] (setting [5]), the inhibition at 25 µg/mL came to 11.5%.
